What was measured:
CXCR4 [1] = target: T1, CXCR4 (Homo sapiens, UniProt P61073); experiment: Competition binding assay vs [^68Ga]Pentixafor in PC3-CXCR4 cells; settings: for IC50: vs 100 nM [^68Ga]Pentixafor, PC3-CXCR4 cells, 60 min 37 °C; for Hill Slope, Competitive Binding Experiment: vs [^68Ga]Pentixafor, value ± SD
T1 construct: expressed in transfected cells; host or cells: PC3 (human prostate cancer) cells stably transduced with CXCR4
Procedure: (§1) PC3-CXCR4 cells were plated in 12-well plates at a density of 500,000 cells per well and incubated for 48 h at 37 °C/5% CO2. Prior to the binding assay the cells were incubated in fresh media and 370–555 kBq of [^68Ga]Pentixafor or [^18F]RPS-544 was added to each well. The corresponding concentration of [^68Ga]Pentixafor in each well was 100 nM, and the concentration of [^18F]RPS-544 was approximately 5 pM. Then non-radioactive ligands were added to give a final ligand concentration in the range 0.001–10,000 nM. A total of eight concentrations were studied, and each concentration was tested in triplicate. The cells were incubated for 60 min at 37 °C/5% CO2. The media was removed under suction, the cells were washed with cold PBS 1X and detached and transferred to tubes for counting in 1 M NaOH. The cells were counted in a Wizard^2 Gamma Counter (PerkinElmer, Waltham, MA, USA). Non-specific binding was subtracted, and the IC50 values were determined by assuming a simple competitive binding interaction and fitting the data to a sigmoidal Hill plot in Origin 9.0 (OriginLab, Northampton, MA, USA). Potencies are expressed as IC50 ± standard deviation (Supplemental Data, Figure S7).

PC3-CXCR4 cells = experiment: Cell-associated activity in PC3-CXCR4 cells; assay type: cell-based, human; settings: 1 h
Procedure: Maximum cell-associated activity was calculated by subtracting the cell uptake of the radioactive ligand at the highest non-radioactive ligand concentration of 10 µM (which we considered to be non-specific uptake/binding) from the cell uptake at the lowest non-radioactive ligand concentration of 10^−5 µM.

CXCR4 [2] = target: T1, CXCR4; experiment: Saturation binding assay in PC3-CXCR4 cells; settings: for Kd: saturation binding, PC3-CXCR4 cells; for Hill Slope, Saturation Binding Experiment: value ± SD
Procedure: To determine the dissociation constants, saturation binding assays were performed in the PC3-CXCR4 cells. The cells were plated as described above, and approximately 5 nM of the radioligand was added to each well. Then the corresponding non-radioactive ligand was added to give a final concentration in the range 0.001–10,000 nM. A total of eight concentrations were tested, and each concentration was tested in triplicate. The samples were washed and counted as described above. Non-specific binding was subtracted, and Kd values were determined by performing a nonlinear one site binding curve fit with equation y = (Bmax · x)/(Kd + x). Values are expressed as Kd ± standard deviation (Supplemental Data, Figure S8).

CXCR4 [3] = target: T1, CXCR4; experiment: Competition binding assay vs [^18F]RPS-544 in PC3-CXCR4 cells; settings: approx. 5 pM [^18F]RPS-544; p = 0.85
Procedure: as §1

[4] = system: PC3-CXCR4 xenograft tumors; experiment: Biodistribution in mice bearing bilateral PC3-WT/PC3-CXCR4 xenograft tumors; assay type: in vivo, BALB/c mice
Procedure: (§2) All animal studies were approved by the Institutional Animal Care and Use Committee of Weill Cornell Medicine (Protocol Number: 2015-0066) and were undertaken in accordance with the guidelines set forth by the USPHS Policy on Humane Care and Use of Laboratory Animals. Animals were housed under standard conditions in approved facilities with 12 h light/dark cycles. Food and water was provided ad libitum throughout the course of the studies. Hairless 6-to-8-week old male BALB/c inbred athymic nude mice (Jackson Laboratory, Bar Harbor, ME, USA) were inoculated bilaterally with 0.2 mL of a 1:1 mixture of 10^7 PC3-CXCR4 cells in PBS and Matrigel (Corning, Tewksbury, MA, USA) subcutaneously in the left shoulder and 0.2 mL of a 1:1 mixture of 10^7 PC3-WT cells in PBS and Matrigel subcutaneously in the right shoulder. Imaging and biodistribution studies were performed three weeks post-implantation, when tumors were approximately 100–300 mm^3.
(§3) For the biodistribution studies, tumor-bearing animals (n = 5/compound/time point) were injected intravenously with 50–100 μL of a 9% v/v EtOH/saline solution containing approximately 1.1 MBq of the radioligand. […] The mice were euthanized at 1 or 2 h p.i. and tissues including blood, heart, lungs, liver, small intestine, large intestine, stomach (with contents), spleen, pancreas, kidneys, muscle, bone, PC3-WT tumors, PC3-CXCR4 tumors, and tail were collected. All organs were weighed and placed in test tubes for counting in a Wizard^2 Gamma Counter (PerkinElmer, Waltham, MA, USA). For comparison, 1% injected activity standards were prepared and counted along with the tissue samples. The tails were counted to correct for any dose extravasation. Activity in each tissue was corrected for decay and for injected activity and expressed as percent injected dose per gram of tissue (%ID/g) ± standard error.

[5] = as above; assay type: in vivo, BALB/c mice
Procedure: as §2, §3

[6] = 1 h p.i., blocked by co-injection of 5 mg/kg AMD-3100

T1 sequence (P61073 whole entry): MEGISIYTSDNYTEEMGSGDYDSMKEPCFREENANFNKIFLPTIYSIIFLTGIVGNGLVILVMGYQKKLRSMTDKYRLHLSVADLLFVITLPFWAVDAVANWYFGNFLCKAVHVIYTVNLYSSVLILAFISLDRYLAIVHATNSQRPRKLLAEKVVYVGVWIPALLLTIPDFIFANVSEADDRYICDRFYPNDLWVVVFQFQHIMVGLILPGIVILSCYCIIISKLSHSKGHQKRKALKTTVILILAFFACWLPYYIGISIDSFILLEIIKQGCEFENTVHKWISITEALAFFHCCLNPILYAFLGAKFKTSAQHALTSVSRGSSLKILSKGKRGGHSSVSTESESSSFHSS

## FCCn1cc(-c2cc(CN3CCCNCCNCCCNCC3)ccc2CN2CCCNCCNCCCNCC2)nn1 [RPS-545]
CXCR4 [1]
  IC50: 398 ± 41 nM
  Hill Slope, Competitive Binding Experiment: 1.75 ± 0.33
PC3-CXCR4 cells
  Cell-Associated Activity: 0.8 ± 0.1 %IA
CXCR4 [2]
  Kd: 515 ± 68 nM
  Hill Slope, Saturation Binding Experiment: 2.01 ± 0.22
CXCR4 [3]
  IC50 vs [^18F]RPS-544 compared with IC50 vs [^68Ga]Pentixafor: not significantly different

## FCCn1cc(CNCc2ccc(CN3CCCNCCNCCCNCC3)cc2)nn1 [RPS-547]
[4]; 1 h p.i.
  Bone tissue activity: 0.52±0.04 %ID/g
  Heart tissue activity: 0.18±0.04 %ID/g
  Kidneys tissue activity: 10.73 ± 1.10 %ID/g
  Large Intestine tissue activity: 0.20±0.02 %ID/g
  Liver tissue activity: 6.59±1.00 %ID/g
  Lungs tissue activity: 0.48±0.05 %ID/g
  Muscle tissue activity: 0.14±0.01 %ID/g
  PC3-CXCR4 Tumor Uptake: 3.09 ± 0.52 %ID/g
  PC3-CXCR4 Tumor-to-Tissue Ratio Blood: 10.1 ± 0.3
  PC3-CXCR4 Tumor-to-Tissue Ratio Bone: 5.9 ± 0.8
  PC3-CXCR4 Tumor-to-Tissue Ratio Kidneys: 0.3 ± 0.2
  PC3-CXCR4 Tumor-to-Tissue Ratio Liver: 0.5 ± 0.2
  PC3-CXCR4 Tumor-to-Tissue Ratio Lungs: 6.2 ± 0.8
  PC3-CXCR4 Tumor-to-Tissue Ratio Muscle: 20.3 ± 0.3
  PC3-CXCR4 Tumor-to-Tissue Ratio PC3-WT: 1.9 ± 0.3
  PC3-WT tumor activity: 1.54±0.18 %ID/g
  Pancreas tissue activity: 0.20±0.01 %ID/g
  Small Intestine tissue activity: 0.95±0.10 %ID/g
  Spleen tissue activity: 0.53±0.02 %ID/g
  Stomach tissue activity: 0.17±0.03 %ID/g
[4]; [6]
  Bone tissue activity: 0.22±0.12 %ID/g
  Heart tissue activity: 0.14±0.19 %ID/g
  Kidneys tissue activity: 4.08±1.10 %ID/g
  Large Intestine tissue activity: 0.23±0.06 %ID/g
  Liver tissue activity: 4.13±0.50 %ID/g
  Lungs tissue activity: 0.35±0.15 %ID/g
  Muscle tissue activity: 0.18±0.35 %ID/g
  PC3-CXCR4 tumor activity: 1.16±0.12 %ID/g
  PC3-WT tumor activity: 0.86±0.10 %ID/g
  Pancreas tissue activity: 0.22±0.04 %ID/g
  Small Intestine tissue activity: 0.51±0.18 %ID/g
  Spleen tissue activity: 0.12±0.03 %ID/g
  Stomach tissue activity: 0.10±0.03 %ID/g
[4]; 1 h p.i., listed as [^18F]RPS-547
  PC3-CXCR4 Tumor Uptake: 3.1 ± 0.5 %ID/g
[4]; 2 h p.i.
  Bone tissue activity: 0.31±0.02 %ID/g
  Heart tissue activity: 0.08±0.01 %ID/g
  Kidneys tissue activity: 5.60±0.56 %ID/g
  Large Intestine tissue activity: 0.19±0.12 %ID/g
  Liver tissue activity: 5.18±0.27 %ID/g
  Lungs tissue activity: 0.24±0.02 %ID/g
  Muscle tissue activity: 0.09±0.02 %ID/g
  PC3-CXCR4 Tumor-to-Tissue Ratio Blood: 24.0 ± 0.2
  PC3-CXCR4 Tumor-to-Tissue Ratio Bone: 6.3 ± 0.4
  PC3-CXCR4 Tumor-to-Tissue Ratio Kidneys: 0.3 ± 0.1
  PC3-CXCR4 Tumor-to-Tissue Ratio Liver: 0.4 ± 0.2
  PC3-CXCR4 Tumor-to-Tissue Ratio Lungs: 8.2 ± 0.4
  PC3-CXCR4 Tumor-to-Tissue Ratio Muscle: 11.0 ± 0.3
  PC3-CXCR4 Tumor-to-Tissue Ratio PC3-WT: 2.2 ± 0.2
  PC3-CXCR4 tumor activity: 2.02±0.10 %ID/g
  PC3-WT tumor activity: 0.86±0.13 %ID/g
  Pancreas tissue activity: 0.11±0.00 %ID/g
  Small Intestine tissue activity: 0.80±0.01 %ID/g
  Spleen tissue activity: 0.36±0.04 %ID/g
  Stomach tissue activity: 0.11±0.02 %ID/g
[5]; 1 h p.i.
  Blood tissue activity: 0.28±0.06 %ID/g
[5]; [6]
  Blood tissue activity: 0.41±0.40 %ID/g
[5]; 2 h p.i.
  Blood tissue activity: 0.08±0.01 %ID/g
CXCR4 [1]
  IC50: 601 ± 118 nM
  Hill Slope, Competitive Binding Experiment: 0.97 ± 0.14
PC3-CXCR4 cells
  Cell-Associated Activity: 6.7 ± 2.8 %IA
CXCR4 [2]
  Kd: 261 ± 22 nM
  Hill Slope, Saturation Binding Experiment: 1.03 ± 0.08

## FCCn1cc(CCNCc2ccc(CN3CCCNCCNCCCNCC3)cc2)nn1 [RPS-552]
[4]; 1 h p.i.
  Bone tissue activity: 0.64±0.14 %ID/g
  Heart tissue activity: 0.13±0.03 %ID/g
  Kidneys tissue activity: 7.23 ± 2.66 %ID/g
  Large Intestine tissue activity: 0.43±0.10 %ID/g
  Liver tissue activity: 4.36±0.24 %ID/g
  Lungs tissue activity: 0.50±0.04 %ID/g
  Muscle tissue activity: 0.15±0.04 %ID/g
  PC3-CXCR4 Tumor Uptake: 2.52 ± 0.11 %ID/g
  PC3-CXCR4 Tumor-to-Tissue Ratio Blood: 11.9 ± 0.1
  PC3-CXCR4 Tumor-to-Tissue Ratio Bone: 4.0 ± 0.2
  PC3-CXCR4 Tumor-to-Tissue Ratio Kidneys: 0.3 ± 0.3
  PC3-CXCR4 Tumor-to-Tissue Ratio Liver: 0.6 ± 0.1
  PC3-CXCR4 Tumor-to-Tissue Ratio Lungs: 5.0 ± 0.1
  PC3-CXCR4 Tumor-to-Tissue Ratio Muscle: 16.7 ± 0.1
  PC3-CXCR4 Tumor-to-Tissue Ratio PC3-WT: 2.5 ± 0.3
  PC3-WT tumor activity: 1.00±0.23 %ID/g
  Pancreas tissue activity: 0.26±0.05 %ID/g
  Small Intestine tissue activity: 0.54±0.06 %ID/g
  Spleen tissue activity: 0.92±0.08 %ID/g
  Stomach tissue activity: 0.14±0.07 %ID/g
[4]; [6]
  Bone tissue activity: 0.31±0.07 %ID/g
  Heart tissue activity: 0.18±0.08 %ID/g
  Kidneys tissue activity: 4.41±1.01 %ID/g
  Large Intestine tissue activity: 0.22±0.03 %ID/g
  Liver tissue activity: 3.15±0.70 %ID/g
  Lungs tissue activity: 0.49±0.09 %ID/g
  Muscle tissue activity: 0.45±0.67 %ID/g
  PC3-CXCR4 tumor activity: 1.20±0.43 %ID/g
  PC3-WT tumor activity: 0.85±0.21 %ID/g
  Pancreas tissue activity: 0.25±0.04 %ID/g
  Small Intestine tissue activity: 0.80±0.11 %ID/g
  Spleen tissue activity: 0.70±0.11 %ID/g
  Stomach tissue activity: 0.20±0.20 %ID/g
[5]; 1 h p.i.
  Blood tissue activity: 0.21±0.07 %ID/g
[5]; [6]
  Blood tissue activity: 0.27±0.06 %ID/g
CXCR4 [1]
  IC50: 515 ± 68 nM
  Hill Slope, Competitive Binding Experiment: 1.18 ± 0.07
PC3-CXCR4 cells
  Cell-Associated Activity: 3.5 ± 0.1 %IA
CXCR4 [2]
  Kd: 314 ± 48 nM
  Hill Slope, Saturation Binding Experiment: 0.93 ± 0.14
